Results on one compound are retold here after US20090286718A1, “Stable Aqueous Cyclosporin Compositions” (SIRION THERAPEUTICS, INC., priority 2008, published 2009).

Like-named read-outs stand apart in the source and are kept apart here.

The conditions of this data set: initial 0.220 %. How it is done: The samples were tested for stability after having been stored at 25° C. for three months.

For the compound `C/C=C/C=C/C(=O)O` [Sorbic Acid, sorbic acid], the “Sorbic Acid Concentration (%) After 3 months storage at 25 C.” value runs as follows: (pH = 5.5) 0.13%; (pH = 6.0) 0.21%; (pH = 6.5) 0.21%.
